Experiment [1] concerns primary fibroblasts (healthy controls and PA, MMA, BCKDK, PDH, VLCAD, LS, PC, GA, VLCFA, KSS, FXN, HD). The experiment is described as follows: Measurement of ROS (H2DCFDA) in primary fibroblasts. The class given is cell-based, human. The conditions noted are these: Homo sapiens, Fibroblast, procedure Example 812. The essentials:
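Patient and healthy-control primary fibroblasts switched to supplemented DMEM 24 h before assay, then treated with compound (10 μM) plus H2DCFDA (22 μM) for 2 h (PA, MMA lines) or 24 h (other lines). Kinetic fluorescence at 492/527 nm over 60 min; only live cells analysed.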

Experiment [2] relates to HepG2 cells. The experiment can be described thus: MitoBiogenesis In-Cell ELISA (COX-I, SDH-A). The class given is cell-based. Particulars: Homo sapiens, 168 h, 10 uM, 7 days, read-out: % increase in Mitochondrial Biogenesis. The source says:
We determined the effect of compounds of the present disclosure on the levels of two mitochondrial proteins using MitoBiogenesis™ In-Cell ELISA Kit (Abcam ab110216) according to manufacturer's instructions. The two proteins are each subunits of a different oxidative phosphorylation enzyme complex, one protein being subunit I of Complex IV (COX-1), which is mitochondrial (mt)DNA-encoded, and the other being the 70 kDa subunit of Complex II (SDH-A), which is nuclear (n)DNA-encoded. Complex IV includes several proteins which are encoded in the mitochondrion, while the proteins of Complex II are entirely encoded in the nucleus. HepG2 cells (ATCC, HB-8065) were cultured (5% CO2 at 37° C.) and plated in Poly-D-Lysine 384-Well plate (Corning, 356663) at a density of 40,000 cells/mL in 50 μL. Culture and assay media consisted of DMEM (Gibco, 11995-065) supplemented with 1% Penicillin-Streptomycin and 10% FBS (Hyclone, SV30087.03). Cells were allowed to settle for 30 min at room temperature and further incubated overnight (37° C. and 5% CO2) for adherence. Next day, 50-5 μM of the negative control Chloramphenicol (Selleck, S1677), test compounds (50-10 μM) and vehicle DMSO (0.2%) were added at the recommended volumes to the 384-well plate for 7 days without media change using a Tecan compound dispenser. All the solutions and wash buffers were prepared and dispensed according to manufacturer's volumes for a 384-well plate format. Effects of compounds on mtDNA-encoded protein expression (COX-I) and nuclear DNA-encoded mitochondrial protein expression (SDH-A) were expressed as relative signal (nm) to vehicle of a n=2 per conditions.
(In general: In an ELISA, binding on a coated surface is turned into a signal by an enzyme label.)

Experiment [3] concerns HepG2 cells. The experiment is described as follows: Mitochondrial membrane potential (MITO-ID MP detection Kit). The experiment is classed as cell-based. Particulars: Homo sapiens, 168 h, 10 uM, 7 days, read-out: % decrease in Mitochondrial Membrane Potential. Put shortly: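 Cells plated at 160000 cells/mL in DMEM with 10% FBS and 1% Pen-Strep, adhered overnight at 37° C., 5% CO2. Exposure to test compounds (50-10 μM) or 0.2% DMSO for 7 days without media change; membrane potential measured with MITO-ID MP detection kit per manufacturer.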

In experiment [4] the test system is tyrosine hydroxylase positive mesencephalic neurons injured by 6-OHDA. The experiment can be described thus: Neuroprotective effect on damage induced by 6-OHDA on culture of mesencephalic neurons. The experiment is classed as cell-based. The conditions noted are these: Rattus norvegicus, Neuron; 50 uM; 6-OHDA 15 μM, 48h; read-out: % reversion of TH positive neurons (6-OHDA-mediated degradation of dopaminergic neurons). As for the experimental part:
The protective effect of compounds of the present disclosure was determined on 6-OHDA-mediated injury on mesencephalon neuronal cultures.
(§1) A female Wistar rat (Janvier; France) of 15 days gestation was terminated by cervical dislocation, the fetuses were removed from the uterus and their brains were harvested and placed in ice-cold medium (Leibovitz's L15 medium, Gibco). Only ventral mesencephalic flexure was used for the cell preparations. The midbrain was dissociated by trypsinization. The reaction was stopped, and the suspension was triturated and centrifuged. The pellet of dissociated cells was resuspended in chemically defined medium consisted of Neurobasal (Gibco, 21103049), containing B27 supplement (Gibco, A3582801) and L-glutamine (Gibco, 25030081), 10 ng/ml (BDNF; Pepro Tech, France, 450-02) and 1 ng/ml (GDNF; Pepro Tech, 450-51).
(§2) Viable primary rat embryo mesencephalic cells were counted and seeded on 96-multi-wells plate precoated with poly-L-lysine. Cells were maintained in a humidified incubator at 37° C. in 5% CO2-95% air atmosphere and medium changed on day 2. On day 6, the culture medium was removed and replaced by new media without neurotrophic factors containing the compounds of the present disclosure (50-10 μM) or vehicle (0.1% DMSO). After 1h exposure, injury of mesencephalon neuronal cultures was induced by 6-OHDA (15 μM) for further 48h. A mixture of the growth factors GDNF (1 ng/ml) and BDNF (10 ng/ml) were used as reference compound. On day 8, the tyrosine hydroxylase positive neurons were evaluated. Cultures were fixed 30 min at 4° C. with paraformaldehyde in PBS (4%, Sigma). After, cells were permeabilized with 0.1% Triton X100 for 30 min, saturated with PBS containing 3% of BSA (bovine serum albumin) and incubated 2h with anti-tyrosine hydroxylase antibody (Sigma, 1:10000; clone TH-2) at 1/10000 in PBS containing 0.5% of BSA. Cells were washed three times with PBS containing 0.5% of BSA and incubated 1h with goat anti mouse antibody coupled with AF488 (Invitrogen A11001) diluted at 1/1000 in PBS containing 0.5% of BSA. Finally, nuclei were stained with DAPI (Thermo fisher, D1306) at 1/1000 in PBS containing 0.5% of BSA. After rinsing with PBS, the plate was visualized and examined with Cell Insight HCS (Thermo Scientific) to determine the number of tyrosine hydroxylase positive cells per well.
(§3) The results for each well were expressed as a percentage by setting the density of tyrosine hydroxylase positive cells under control conditions to 100%. Then the result for each condition was reported as mean±SEM from 4 independent cultures.
(§4) A global analysis of the data was performed using a one-way analysis of variance (ANOVA), followed by Fisher's Protected Least Significant Difference when applicable. The level of significance was set to p<0.05.

Experiment [5] concerns tyrosine hydroxylase positive mesencephalic neurons injured by MPP+. The experiment can be described thus: Neuroprotective effect on damage induced by MPP+ on culture of mesencephalic neurons. The experiment is classed as cell-based. The conditions noted are these: Rattus norvegicus, Neuron, MPP+ 50 μM, 48h, read-out: % reversion of TH positive neurons (MPTP-mediated degradation of dopaminergic neurons).
Excerpt: as §1, with “(Gibco),” for “(Gibco, 21103049),”, “(Gibco)” for “(Gibco, A3582801)”, “(Gibco),” for “(Gibco, 25030081),”, “France)” for “France, 450-02)”, “Tech).” for “Tech, 450-51).”
as §2, with “MPP^+ (50” for “6-OHDA (15”, “Thermo Scientific, 28908).” for “Sigma).”, “DAPI” for “DAPI (Thermo fisher, D1306)”
as §3, §4

Read-outs that look alike come from different tables or passages of the source. Bounds are passed on as bounds.

Turning to `COC(=O)C[C@H](N)C(=O)SCCNC(=O)CCNC(=O)[C@H](O)C(C)(C)CO` [Compound 414], the inhibition at 10 µM is no less than 10% in experiment [1] (BCKD GM00649, Assay Condition C, read-out: Decreased ROS by at least 10%); no less than 30% in experiment [1] (BCKD GM00649, Assay Condition C, read-out: Decreased ROS by at least 30%); greater than 20% with HepG2 cells [3]. Also, the activation at 10 µM with HepG2 cells [2] is 10%.

For `CC(C)(CO)[C@@H](O)C(=O)NCCC(=O)NCCSC(=O)[C@@H](N)CCC(=O)O` [Compound 383], the inhibition at 50 µM in experiment [4] was no less than 30%. In addition, the inhibition at 10 µM in experiment [5] is no less than 60%; in experiment [1] (BCKD GM00612, Assay Condition A, read-out: Decreased ROS by at least 10%), no less than 10%.

For the origin of these results see patent publication US20230107216A1, “PANTETHEINE DERIVATIVES AND USES THEREOF” (Comet Therapeutics, Inc., priority 2018, published 2023).
